# Patent US20190365710A1, “METHODS OF TREATING CANCER” (GlaxoSmithKline Intellectual Property Development Limited, priority 2016, published 2019)
# Where two headings read alike, the source gives them in different places.
# Experiments:
# [1] = system: 196 human cancer cell lines; experiment: 6-day growth-death assay (Cell Titer Glo); format: cell-based
# [2] = system: AML cell lines; experiment: 6-day growth-death assay (Cell Titer Glo); format: cell-based, human
# [3] = system: Bladder cancer cell lines; experiment: 6-day growth-death assay (Cell Titer Glo); format: cell-based, human; conditions: for IC50: Homo sapiens, read-out: Median gIC50, Bladder
# [4] = system: Colon cancer cell lines; experiment: 6-day growth-death assay (Cell Titer Glo); format: cell-based, human
# [5] = system: Kidney cancer cell lines; experiment: 6-day growth-death assay (Cell Titer Glo); format: cell-based, human; conditions: 10 cell lines
# [6] = system: NSC-LC cell lines; experiment: 6-day growth-death assay (Cell Titer Glo); format: cell-based, human; conditions: for IC50: Homo sapiens, read-out: Median gIC50, Lung (NSCLC); for Median % Ymin − T0: Lung (NSCLC)
# [7] = system: Melanoma cell lines; experiment: 6-day growth-death assay (Cell Titer Glo); conditions: for IC50: Homo sapiens, read-out: Median gIC50, Melanoma
# Method: (§1) The growth of all cell lines was evaluated over time across a wide range of seeding densities to identify conditions that permitted proliferation throughout the entire 6-day assay. Cells were plated at the optimal seeding density and after overnight incubation, a 20-point 2-fold titration of compound was added and plates were incubated for 6 days. A replicate plate of cells was harvested at the time of compound addition to quantify the starting number of cells (To). Values obtained after the 6 day treatment were expressed as a function of the To value and plotted against compound concentration. The To value was normalized to 100% and represents the number of cells at the time of compound addition. The data were fit with a 4 parameter equation to generate a concentration response curve and the growth IC50 (gIC50) was determined. The gIC50 is the midpoint of the ‘growth window’, the difference between the number of cells at the time of compound addition (T0) and the number of cells after 6 days (DMSO control). The growth-death assay can be used to quantify the net population change, clearly defining cell death (cytotoxicity) as fewer cells compared to the number at the time of compound addition (T0).
# [8] = system: A375; experiment: 6-day growth-death assay (Cell Titer Glo); format: cell-based; conditions: Homo sapiens, A-375, 144 h, read-out: gIC50
# Method: as §1
# [9] = system: ACHN; experiment: 6-day growth-death assay (Cell Titer Glo); format: cell-based; conditions: Homo sapiens, 144 h, read-out: gIC50
# Method: as §1
# [10] = system: HL-60; experiment: 6-day growth-death assay (Cell Titer Glo); format: cell-based; conditions: Homo sapiens, HL-60, 144 h, read-out: gIC50
# Method: as §1
# [11] = system: SK-MEL-5; experiment: 6-day growth-death assay (Cell Titer Glo); format: cell-based; conditions: Homo sapiens, SK-MEL-5, 144 h, read-out: gIC50
# Method: as §1
# [12] = system: MDA-MB-435S; experiment: 6-day growth-death assay (Cell Titer Glo); format: cell-based, human
# Method: as §1
# [13] = system: human renal cell carcinoma xenografts (ACHN); experiment: ACHN xenograft tumor growth; format: in vivo, SCID mice; conditions: for Body weight Difference (vs. vehicle): ACHN (ccRCC)
# [14] = system: arginine methylation in Toledo DLBCL cells; experiment: Western analysis of arginine methylation marks (ADMA, SDMA, MMA); format: cell-based, human
# Excerpt: (B) Representative western blots of arginine methylation marks. Regions quantified are denoted by black bars on the right of the gel.
# (B) Representative western blots of arginine methylation marks. Regions quantified for (A) are denoted by black bars on the side of the gel.
# As predicted, ADMA methylation decreased while MMA increased upon compound exposure (FIG. 12). […] Given the detection of numerous substrates with varying kinetics, and variability of ADMA levels among DMSO-treated samples, both the full lane and a prominent 45 kDa band were characterized to assess ADMA. Increases in MMA were apparent by 24 hours and near maximal by 48 hours while decreases in the 45 kDa ADMA band required 72-96 hours to achieve maximal effect. Increases in SDMA were apparent after 48 hours of compound exposure and continued to increase through 120 hours, consistent with the potential switch from conversion of MMA to ADMA by Type I PRMTs to SDMA by Type II PRMTs (FIG. 12).
# Cells were then washed, cultured in Compound A-free media, samples were collected daily through 120 hours, and arginine methylation levels were examined by western analysis. […] SDMA appeared to continue to increase even after 6 hours of washout. This is consistent with the continued increase observed through 120 hours without any obvious plateau (FIG. 12) coupled with the durable increase in MMA that has not yet returned to baseline after washout. Durability of each modification generally reflected the kinetics of arginine methylation changes brought about by Compound A, with MMA being the most rapid.
# [15] = system: ccRCC cell lines; conditions: only at the highest concentration
# [16] = molecular target: PRMT6 (Homo sapiens, UniProt Q96LA8); experiment: biochemical
# [17] = molecular target: PRMT8 (Homo sapiens, UniProt Q9NR22); experiment: biochemical
# [18] = Homo sapiens, 144 h, read-out: Median gIC50
# [19] = 0.4 μM Compound A for 72 hours then washout
# Chain of PRMT8 (Q9NR22 whole entry): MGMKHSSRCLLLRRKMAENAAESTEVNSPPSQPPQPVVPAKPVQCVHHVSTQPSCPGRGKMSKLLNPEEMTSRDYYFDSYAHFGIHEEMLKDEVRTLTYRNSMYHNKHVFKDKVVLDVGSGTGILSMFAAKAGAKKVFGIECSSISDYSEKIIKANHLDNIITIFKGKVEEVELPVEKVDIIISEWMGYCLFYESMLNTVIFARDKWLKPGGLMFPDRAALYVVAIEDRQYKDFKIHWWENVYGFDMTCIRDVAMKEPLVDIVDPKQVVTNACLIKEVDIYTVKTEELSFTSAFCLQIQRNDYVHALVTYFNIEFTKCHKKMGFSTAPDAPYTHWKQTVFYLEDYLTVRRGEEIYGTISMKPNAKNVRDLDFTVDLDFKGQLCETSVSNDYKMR
# Chain of PRMT6 (Q96LA8 whole entry): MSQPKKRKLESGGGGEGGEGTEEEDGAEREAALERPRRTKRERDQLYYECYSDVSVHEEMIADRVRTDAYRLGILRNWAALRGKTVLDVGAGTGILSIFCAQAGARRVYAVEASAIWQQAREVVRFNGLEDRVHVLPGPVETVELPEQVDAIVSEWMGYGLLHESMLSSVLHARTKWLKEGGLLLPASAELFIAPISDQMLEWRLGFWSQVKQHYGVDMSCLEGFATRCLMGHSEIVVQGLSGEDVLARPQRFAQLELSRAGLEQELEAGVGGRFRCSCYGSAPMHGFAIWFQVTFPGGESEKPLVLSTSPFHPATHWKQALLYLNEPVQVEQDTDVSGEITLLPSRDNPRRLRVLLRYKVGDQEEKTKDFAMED
smiles,measurement,setting,value
CCOCC1(COCC)CCC(c2n[nH]cc2CN(C)CCNC)CC1 [Compound A],% Cytotoxic (cell lines with negative Ymin−T0),"[1]; 6-day, Total, 196 cell lines",23%
same,% gIC100 < 2 μM (of cell lines),"[1]; 6-day, Total, 196 cell lines",4%
same,IC50,[1]; [18],2120 nM
same,% Cytotoxic (cell lines with negative Ymin−T0),"[2]; 6-day, AML, 10 cell lines",50%
same,% gIC100 < 2 μM (of cell lines),"[2]; 6-day, AML, 10 cell lines",0%
same,Median gIC100,"[2]; 6-day, AML, 10 cell lines",16.72 µM
same,number of cell lines in which cytotoxicity was induced,"[2]; 6-day, of 10 AML cell lines",5
same,IC50,[2]; [18],540 nM
same,% Cytotoxic (cell lines with negative Ymin−T0),"[3]; 6-day, Bladder, 18 cell lines",0%
same,% gIC100 < 2 μM (of cell lines),"[3]; 6-day, Bladder, 18 cell lines",0%
same,Median % Ymin − T0,"[3]; Bladder, MTAP High",658%
same,Median gIC100,"[3]; Bladder, MTAP High",29.3 µM
same,Median % Ymin − T0,"[3]; Bladder, MTAP Low",257%
same,Median gIC100,"[3]; Bladder, MTAP Low",29.3 µM
same,IC50,[3]; MTAP High,7600 nM
same,IC50,[3]; MTAP Low,1600 nM
same,% Cytotoxic (cell lines with negative Ymin−T0),"[4]; 6-day, Colon, 34 cell lines",3%
same,% gIC100 < 2 μM (of cell lines),"[4]; 6-day, Colon, 34 cell lines",0%
same,Median gIC100,"[4]; 6-day, Colon, 34 cell lines",29.33 µM
same,IC50,[4]; [18],5510 nM
same,% Cytotoxic (cell lines with negative Ymin−T0),[5],0%
same,% gIC100 < 2 μM (of cell lines),[5],0%
same,Median gIC100,[5],29.35 µM
same,% Cytotoxic (cell lines with negative Ymin−T0),"[6]; 6-day, NSC-LC, 25 cell lines",16%
same,% gIC100 < 2 μM (of cell lines),"[6]; 6-day, NSC-LC, 25 cell lines",0%
same,Median gIC100,"[6]; 6-day, NSC-LC, 25 cell lines",29.33 µM
same,IC50,[6]; MTAP High,5000 nM
same,IC50,[6]; MTAP Low,3000 nM
same,Median % Ymin − T0,[6]; MTAP High,141%
same,Median % Ymin − T0,[6]; MTAP Low,237%
same,% Cytotoxic (cell lines with negative Ymin−T0),"[7]; 6-day, Melanoma, 7 cell lines",0%
same,% gIC100 < 2 μM (of cell lines),"[7]; 6-day, Melanoma, 7 cell lines",0%
same,Median gIC100,"[7]; 6-day, Melanoma, 7 cell lines",29.33 µM
same,IC50,[7]; MTAP High,1900 nM
same,IC50,[7]; MTAP Low,300 nM
same,Median % Ymin − T0,"[7]; Melanoma, MTAP High",214%
same,Median gIC100,"[7]; Melanoma, MTAP High",29.4 µM
same,Median % Ymin − T0,"[7]; Melanoma, MTAP Low",53%
same,IC50,[8],50 ± 30 nM
same,IC50,[9],100 ± 50 nM
same,IC50,[10],20 ± 10 nM
same,IC50,[11],90 ± 30 nM
same,gIC100,[12],29.33 ± 0.00 µM
same,Body weight Difference (vs. vehicle),"[13]; 150 mg/kg QD oral, Day 59",−3%
same,Body weight Difference (vs. vehicle),"[13]; 300 mg/kg QD oral, Day 59",−4%
same,Body weight Difference (vs. vehicle),"[13]; 450 mg/kg QD oral, Day 59",−7%
same,Body weight Difference (vs. vehicle),"[13]; 600 mg/kg QD oral, arm terminated at day 31",−17%
same,body weight loss,"[13]; ACHN, 600 mg/kg daily, dosing group terminated on day 31",Significant body weight loss
same,time after which increases in SDMA were apparent,[14]; 0.4 μM Compound A,48 h
same,time at which increases in MMA were apparent,[14]; 0.4 μM Compound A,≤ 24 h
same,time at which increases in MMA were near maximal,[14]; 0.4 μM Compound A,≤ 48 h
same,time required for maximal decrease in the 45 kDa ADMA band,[14]; 0.4 μM Compound A,72 to 96 h
same,time for ADMA to return to baseline after washout,[14]; [19],≤ 24 h
same,time for MMA to return to baseline after washout,[14]; [19],≤ 24 h
same,time for SDMA to return to baseline after washout,[14]; [19],≤ 96 h
same,concentration at which caspase cleavage occurred,[15],30 µM
same,IC50,[16],3 to 5 nM
same,IC50,[17],3 to 5 nM
